Source: US20240366569A1, “COMBINATIONS FOR TREATING CANCER” (Purdue Pharmaceutical Products L.P., priority 2023, published 2024)
“Also recorded” adds a separate entry of the source.

Key:
[1] = test system: renal cell carcinoma (RCC); conditions: cited from earlier work
metastatic melanoma = conditions: cited from earlier work
[2] = patients with advanced melanoma; cited from earlier work
advanced melanoma [3] = conditions: cited from earlier work
advanced melanoma [4] = conditions: in vivo; cited from earlier work
[5] = Myelosuppression on administration of Tinostamustine at the indicated dosage ranges; type: in vivo; conditions: below 40 mg/m^2 body surface area
Method: More particularly, the dosage ranges of Tinostamustine described herein may preferably avoid Tinostamustine causing cytotoxicity to immune cells. For comparison, the doses at which Tinostamustine are administered in accordance with the present invention are below those normally used to achieve an anti-cancer neoplastic effect (e.g. via inducing cytotoxicity in tumour cells) with Tinostamustine as a monotherapy (typically […]).

[6] = test system: MC38 subcutaneous murine colorectal syngeneic model; test: MC38 subcutaneous murine colorectal syngeneic model: tumour burden and survival; type: in vivo, female C57BL/6 mice
Method: Specifically, the effects of the combined therapy Tinostamustine and an […] antibody in the treatment of the MC38 subcutaneous murine colorectal syngeneic model in female C57BL/6 mice following 3 dose cycles was assessed. MC38 is a commonly used murine model for colorectal carcinoma.
Six groups of mice were randomly allocated a group, hereafter referred to as Groups 1 to 6, as in Table 3.
Tinostamustine was administered intravenously, specifically by slow intravenous injection at a rate of ˜60 s per mouse. Two groups of mice were administered tinostamustine at a dose of 5 mg/kg once weekly, either as a monotherapy (Group 3) or as a combination therapy (Group 5). […]
The MC38 cells were maintained in vitro with DMEM medium supplemented with 10% fetal bovine serum at 37° C. in an atmosphere of 5% CO2 in air. The cells in exponential growth phase were harvested and quantitated by cell counter before tumour inoculation. […]
Tumour volumes were measured twice a week after randomization in two dimensions using a caliper, and the volume was expressed in mm3 using the formula: “V=(L×W×W)/2, where V was tumour volume, L was tumour length (the longest tumor dimension) and W was tumour width (the longest tumour dimension perpendicular to L). […] The body weights and tumour volumes were measured by using StudyDirector™ software (version 3.1.399.19). […]

[7] = Phase 1B clinical trial of Tinostamustine in combination with Nivolumab: safety, tolerability, recommended dose; type: in vivo, human
From the text: The clinical study relates to an open-label, single-centre, phase-1B clinical trial to determine the safety, tolerability, recommended dose and anti-cancer efficacy of Tinostamustine in combination with the anti-PD-1 monoclonal antibody (mAb), Nivolumab in patients with advanced melanoma receiving standard-of-care treatment. Tinostamustine is a compound having the following structural formula: […]
A total of 17 patients with advanced melanoma were recruited to a Phase IB study to characterise the safety, tolerability, recommended dose and preliminary efficacy in the treatment of cancer of Tinostamustine in combination with the immune checkpoint inhibitor, Nivolumab.
Tinostamustine was administered intravenously. Four patients were administered tinostamustine at a dose of 15 mg/m^2 (referred to as dose level 1—DL1) for each cycle. Thirteen patients were administered with Tinostamustine at a dose of 30 mg/m^2 (referred to as dose level 2—DL2) for each cycle.
The primary endpoint of the study was dose limiting toxicity (DLT) observed during the first 6 weeks of trial treatment. […]

[8] = MC38 model: tolerability and body weight; type: in vivo, female C57BL/6 mice
Method: After tumour cell inoculation, the animals were checked daily for morbidity and mortality. During routine monitoring, the animals were checked for treatment effects on tumour growth, behaviour such as mobility, food and water consumption, body weight gain/loss (Body weights) were measured twice a week after randomization), eye/hair matting and any other abnormalities. Mortality and observed clinical signs were recorded for individual animals in detail.
Tumour volumes were measured twice a week after randomization in two dimensions using a caliper, and the volume was expressed in mm3 using the formula: “V=(L×W×W)/2, where V was tumour volume, L was tumour length (the longest tumor dimension) and W was tumour width (the longest tumour dimension perpendicular to L). Dosing as well as tumour and body weight measurements were conducted in a Laminar Flow Cabinet. The body weights and tumour volumes were measured by using StudyDirector™ software (version 3.1.399.19).

Ipilimumab: anti-CTLA-4 monoclonal antibody
response rate [1]: minimal activity
response rate (metastatic melanoma): 15-20%
high-grade adverse events [2]: 28 % of patients

Nivolumab
response rate [1]: ~25%
response rate (metastatic melanoma): 43%
objective response rate (advanced melanoma [3]; first-line): 40.0%
progression-free survival (advanced melanoma [3]; first-line): 5.1 months
overall survival improved by (advanced melanoma [3]; versus dacarbazine, first-line): 58%
overall survival HR (advanced melanoma [3]; versus dacarbazine, p<0.001): 0.42
progression-free survival HR (advanced melanoma [3]; versus dacarbazine, p<0.001): 0.43
progression-free survival improved by (advanced melanoma [3]; versus dacarbazine): 57%
high-grade adverse events [2]: 23 % of patients
median overall survival (advanced melanoma [4]): not reached

Cn1c(CCCCCCC(=O)NO)nc2cc(N(CCCl)CCCl)ccc21 [Tinostamustine]
myelosuppression [5]: no myelosuppression
tumour burden / anti-tumour effect ([6]; dose group not specified): has anti-tumour effect
survival of mice ([6]; vs vehicle control): significantly prolonged the survival; also recorded: increases survival
safety concerns ([7]; Tinostamustine doses between 10 mg/m^2 and 30 mg/m^2 body surface area): without any significant safety concerns
recommended dose ([7]; in combination with Nivolumab 3 mg/kg): 30 mg/m^2
tolerability ([8]; 3 weeks of treatment): well-tolerated
body weight ([8]; mean body weight during treatment): no loss of body weight; also recorded: weight gain
